For orientation: IC50 means the concentration that inhibits the measured activity by half.

Here are results for 50 molecules from US9732075B2, “Benzimidazole-proline derivatives” (IDORSIA PHARMACEUTICALS LTD, priority 2012, dated 2017).

The target of one assay is human orexin-1 receptor (Homo sapiens (Human), UniProt O43613). Briefly: In vitro assay: intracellular calcium measurements (FLIPR), antagonistic activity. Conditions: CHO cells expressing human orexin-1 receptor, orexin-A agonist, geometric mean, read-out: IC50 Ox1. The assay is classed as cell-based. An outline of the steps: (§1)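 Orexin-A-evoked calcium rise (3 nM final, roughly EC70) was recorded with fluo-4 in recombinant CHO cells, human receptor subtype 1 or 2.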
Sequence of human orexin-1 receptor (O43613 whole entry): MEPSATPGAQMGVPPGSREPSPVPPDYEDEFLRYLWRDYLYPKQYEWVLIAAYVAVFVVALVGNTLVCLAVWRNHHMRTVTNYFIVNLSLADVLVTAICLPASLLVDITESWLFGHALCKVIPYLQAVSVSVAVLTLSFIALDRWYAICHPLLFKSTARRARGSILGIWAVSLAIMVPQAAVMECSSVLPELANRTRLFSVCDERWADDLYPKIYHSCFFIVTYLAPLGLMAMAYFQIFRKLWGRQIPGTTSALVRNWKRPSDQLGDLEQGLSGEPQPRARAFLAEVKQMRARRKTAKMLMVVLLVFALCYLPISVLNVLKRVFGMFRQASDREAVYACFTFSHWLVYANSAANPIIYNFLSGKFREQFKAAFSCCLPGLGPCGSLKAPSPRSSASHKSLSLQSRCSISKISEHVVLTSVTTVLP
(In general: Calcium assays in cells follow changes in intracellular calcium, usually with a dye or a luminescent sensor.)

In a further assay the target is human orexin-2 receptor (Homo sapiens (Human), UniProt O43614). The description is as above. The assay is classed as cell-based. Conditions: CHO cells expressing human orexin-2 receptor, orexin-A agonist, geometric mean, read-out: IC50 Ox2. An outline of the steps:
as §1

Sequence of human orexin-2 receptor (O43614 whole entry): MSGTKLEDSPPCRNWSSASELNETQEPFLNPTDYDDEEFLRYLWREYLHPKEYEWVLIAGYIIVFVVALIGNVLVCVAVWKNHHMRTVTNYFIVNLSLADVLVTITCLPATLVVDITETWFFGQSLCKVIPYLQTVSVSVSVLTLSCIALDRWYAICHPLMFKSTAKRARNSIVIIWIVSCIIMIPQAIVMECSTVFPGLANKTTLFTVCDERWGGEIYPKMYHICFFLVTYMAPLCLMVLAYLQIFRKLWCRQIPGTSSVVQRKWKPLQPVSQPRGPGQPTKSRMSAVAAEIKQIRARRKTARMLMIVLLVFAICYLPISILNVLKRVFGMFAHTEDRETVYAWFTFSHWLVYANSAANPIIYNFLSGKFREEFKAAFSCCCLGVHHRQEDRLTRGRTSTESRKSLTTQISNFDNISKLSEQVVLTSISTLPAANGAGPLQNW

Consider `Cc1ccc(-c2nc(C)sc2C(=O)N2CC[C@H](C)[C@H]2c2nc3cc(C)c(C)cc3[nH]2)cc1` [Ex. 4.88], for which the IC50 at human orexin-1 receptor was 11 nM; on human orexin-2 receptor it was 182 nM.

With `Cc1nc(C(=O)N2CC[C@H](C)[C@H]2c2nc3cc(C)c(C)cc3[nH]2)c(-c2cc(F)cc(F)c2)s1` [Ex. 4.89], the IC50 came to 3 nM on human orexin-1 receptor and 2170 nM on human orexin-2 receptor.

`Cc1nc(C(=O)N2CC[C@H](C)[C@H]2c2nc3cc(C)c(C)cc3[nH]2)c(-c2ccc(F)cc2)s1` [Ex. 4.90]: the results for the IC50 on human orexin-1 receptor and at human orexin-2 receptor were 6 nM and 2350 nM, respectively.

Take `Cc1cc(Cl)cc2[nH]c([C@@H]3[C@@H](C)CCN3C(=O)c3cc(Cl)ccc3-n3nccn3)nc12` [Ex. 4.91]: the IC50 was found to be 17 nM at human orexin-1 receptor and 183 nM on human orexin-2 receptor.

As for `Cc1ccc(-c2ccccc2C(=O)N2CC[C@H](C)[C@H]2c2nc3c(C)cc(Cl)cc3[nH]2)cc1` [Ex. 4.92], the figures for the IC50 on human orexin-1 receptor and at human orexin-2 receptor were 5 nM and 212 nM, respectively.

With `Cc1ccc(C(=O)N2CC[C@H](C)[C@H]2c2nc3c(C)cc(Cl)cc3[nH]2)c(-n2nccn2)c1` [Ex. 4.93], the figures for the IC50 at human orexin-1 receptor and on human orexin-2 receptor were 4 nM and 74 nM, respectively.

Turning to `Cc1nc(C(=O)N2CC[C@H](C)[C@H]2c2nc3c(C)cc(Cl)cc3[nH]2)c(-c2ccc(Cl)cc2)s1` [Ex. 4.94], the IC50 at human orexin-1 receptor was 3 nM; on human orexin-2 receptor, 543 nM.

In the case of `Cc1ccc(-n2cccn2)c(C(=O)N2CC[C@H](C)[C@H]2c2nc3c(C)cc(Cl)cc3[nH]2)c1` [Ex. 4.95], the results for the IC50 at human orexin-1 receptor and on human orexin-2 receptor were 28 nM and 1170 nM, respectively.

Consider `Cc1ccc(-c2nc(C)sc2C(=O)N2CC[C@H](C)[C@H]2c2nc3c(C)cc(Cl)cc3[nH]2)cc1` [Ex. 4.96], for which the IC50 on human orexin-1 receptor came to 31 nM; on human orexin-2 receptor, 996 nM.

Consider `COc1ccc(-n2nccn2)c(C(=O)N2CC[C@H](C)[C@H]2c2nc3c(C)cc(Cl)cc3[nH]2)c1` [Ex. 4.97], for which the IC50 on human orexin-1 receptor was 4 nM; at human orexin-2 receptor, 129 nM.

For `Cc1nc(C(=O)N2CC[C@H](C)[C@H]2c2nc3c(C)cc(Cl)cc3[nH]2)c(-c2cc(F)cc(F)c2)s1` [Ex. 4.98], the IC50 on human orexin-1 receptor was 4 nM; at human orexin-2 receptor, 1300 nM.

For `Cc1ccc(-n2nccn2)c(C(=O)N2CC[C@H](C)[C@H]2c2nc3c(C)cc(Cl)cc3[nH]2)c1F` [Ex. 4.99], the IC50 came out at 13 nM on human orexin-1 receptor and 981 nM on human orexin-2 receptor.

As for `Cc1nc(C(=O)N2CC[C@H](C)[C@H]2c2nc3c(C)cc(Cl)cc3[nH]2)c(-c2ccc(F)cc2)s1` [Ex. 4.100], the IC50 at human orexin-1 receptor was 6 nM; on human orexin-2 receptor, 1280 nM.

In the case of `Cc1cc(Cl)cc2[nH]c([C@@H]3[C@@H](C)CCN3C(=O)c3ccccc3-n3nccn3)nc12` [Ex. 4.101], the IC50 on human orexin-1 receptor stood at 18 nM; on human orexin-2 receptor it was 183 nM.

Consider `Cc1ccc(-c2ccccn2)c(C(=O)N2CC[C@H](C)[C@H]2c2nc3cc(Cl)c(C)cc3[nH]2)c1` [Ex. 4.102], for which the IC50 is 10 nM at human orexin-1 receptor and 103 nM at human orexin-2 receptor.

Consider `Cc1cc2[nH]c([C@@H]3[C@@H](C)CCN3C(=O)c3cc(Cl)ccc3-c3ccccc3)nc2cc1Cl` [Ex. 4.103], for which the IC50 on human orexin-1 receptor was determined as 4 nM; on human orexin-2 receptor it was 178 nM.

For `Cc1ccc(-c2cccnc2)c(C(=O)N2CC[C@H](C)[C@H]2c2nc3cc(Cl)c(C)cc3[nH]2)c1` [Ex. 4.104], the IC50 was 14 nM on human orexin-1 receptor and 1660 nM at human orexin-2 receptor.

With `Cc1cc2[nH]c([C@@H]3[C@@H](C)CCN3C(=O)c3cc(F)ccc3-c3ccccc3)nc2cc1Cl` [Ex. 4.105], the IC50 on human orexin-1 receptor was 5 nM; at human orexin-2 receptor, 177 nM.

With `Cc1cc2[nH]c([C@@H]3[C@@H](C)CCN3C(=O)c3cc(F)ccc3-c3ccccn3)nc2cc1Cl` [Ex. 4.106], the IC50 at human orexin-1 receptor is 23 nM; at human orexin-2 receptor, 529 nM.

As to `Cc1cc2[nH]c([C@@H]3[C@@H](C)CCN3C(=O)c3c(F)cccc3-c3cccnc3)nc2cc1Cl` [Ex. 4.107], the results for the IC50 on human orexin-1 receptor and at human orexin-2 receptor were 47 nM and 1760 nM, respectively.

Take `Cc1cc2[nH]c([C@@H]3[C@@H](C)CCN3C(=O)c3cc(C#N)ccc3-c3ccccc3)nc2cc1Cl` [Ex. 4.108]: the IC50 came to 7 nM on human orexin-1 receptor and 419 nM on human orexin-2 receptor.

With `Cc1ccc(C(=O)N2CC[C@H](C)[C@H]2c2nc3cc(Cl)c(C)cc3[nH]2)c(-c2ccccn2)c1` [Ex. 4.109], the IC50 on human orexin-1 receptor stood at 3 nM; on human orexin-2 receptor, 108 nM.

For `Cc1ccc(C(=O)N2CC[C@H](C)[C@H]2c2nc3cc(Cl)c(C)cc3[nH]2)c(-c2cccnc2)c1` [Ex. 4.110], the values for the IC50 at human orexin-1 receptor and on human orexin-2 receptor were 13 nM and 1520 nM, respectively.

In the case of `Cc1ccc(C(=O)N2CC[C@H](C)[C@H]2c2nc3cc(Cl)c(C)cc3[nH]2)c(-c2ccccc2)c1` [Ex. 4.111], the figures for the IC50 at human orexin-1 receptor and on human orexin-2 receptor were 2 nM and 110 nM, respectively.

Regarding `Cc1cc2[nH]c([C@@H]3[C@@H](C)CCN3C(=O)c3c(F)cccc3-c3ccccc3)nc2cc1Cl` [Ex. 4.112], the IC50 on human orexin-1 receptor stood at 3 nM; at human orexin-2 receptor it was 1060 nM.

On to `Cc1cc2[nH]c([C@@H]3[C@@H](C)CCN3C(=O)c3c(-c4ccccn4)ccc(C)c3F)nc2cc1Cl` [Ex. 4.113], for which the IC50 at human orexin-1 receptor came to 9 nM; at human orexin-2 receptor, 2040 nM.

On to `Cc1cc2[nH]c([C@@H]3[C@@H](C)CCN3C(=O)c3cc(C(F)(F)F)ccc3-c3ccccc3)nc2cc1Cl` [Ex. 4.114], for which the IC50 on human orexin-1 receptor was 33 nM; on human orexin-2 receptor it was 1360 nM.

As to `Cc1cc2[nH]c([C@@H]3[C@@H](C)CCN3C(=O)c3c(-c4ccccc4)ccc(C)c3F)nc2cc1Cl` [Ex. 4.115], the results for the IC50 on human orexin-1 receptor and at human orexin-2 receptor were 7 nM and 754 nM, respectively.

As to `Cc1ccc(-c2ccccc2)c(C(=O)N2CC[C@H](C)[C@H]2c2nc3cc(Cl)c(C)cc3[nH]2)c1` [Ex. 4.116], the IC50 on human orexin-1 receptor was found to be 6 nM; at human orexin-2 receptor, 198 nM.

In the case of `Cc1cc2[nH]c([C@@H]3[C@@H](C)CCN3C(=O)c3c(-c4cccnc4)ccc(C)c3F)nc2cc1Cl` [Ex. 4.117], the IC50 was determined as 16 nM on human orexin-1 receptor and 2570 nM at human orexin-2 receptor.

For `Cc1nc(C(=O)N2CC[C@H](C)[C@H]2c2nc3c(Cl)cccc3[nH]2)c(-c2ccc(F)cc2)s1` [Ex. 4.118], the IC50 at human orexin-1 receptor was determined as 50 nM; on human orexin-2 receptor, 4350 nM.

`Cc1nc(C(=O)N2CC[C@H](C)[C@H]2c2nc3c(Cl)cccc3[nH]2)c(-c2cc(F)cc(F)c2)s1` [Ex. 4.119]: the IC50 was 21 nM on human orexin-1 receptor and 2050 nM at human orexin-2 receptor.

Consider `Cc1nc(C(=O)N2CC[C@H](C)[C@H]2c2nc3c(Cl)cccc3[nH]2)c(-c2ccc(Cl)cc2)s1` [Ex. 4.120], for which the values for the IC50 on human orexin-1 receptor and on human orexin-2 receptor were 14 nM and 725 nM, respectively.

As to `COc1cccc(-c2sc(C)nc2C(=O)N2CC[C@H](C)[C@H]2c2nc3c(Cl)cccc3[nH]2)c1` [Ex. 4.121], the IC50 at human orexin-1 receptor is 6 nM; on human orexin-2 receptor it was 475 nM.

For `Cc1cccc(-c2sc(C)nc2C(=O)N2CC[C@H](C)[C@H]2c2nc3c(Cl)cccc3[nH]2)c1` [Ex. 4.122], the IC50 at human orexin-1 receptor was found to be 3 nM; at human orexin-2 receptor, 610 nM.

Regarding `Cc1nc(C(=O)N2CC[C@H](C)[C@H]2c2nc3c(Cl)cccc3[nH]2)c(-c2ccc(Br)cc2)s1` [Ex. 4.123], the results for the IC50 at human orexin-1 receptor and on human orexin-2 receptor were 21 nM and 871 nM, respectively.

For the molecule `Cc1ccc(-c2sc(C)nc2C(=O)N2CC[C@H](C)[C@H]2c2nc3c(Cl)cccc3[nH]2)cc1` [Ex. 4.124], the IC50 was 8 nM at human orexin-1 receptor and 591 nM on human orexin-2 receptor.

For the molecule `Cc1nc(C(=O)N2CC[C@H](C)[C@H]2c2nc3c(Cl)cccc3[nH]2)c(-c2ccc(C)c(C)c2)s1` [Ex. 4.125], the IC50 on human orexin-1 receptor was 1 nM; at human orexin-2 receptor it was 81 nM.

With `Cc1nc(C(=O)N2CC[C@H](C)[C@H]2c2nc3c(Cl)cccc3[nH]2)c(-c2ccc(F)c(F)c2)s1` [Ex. 4.126], the IC50 came to 43 nM on human orexin-1 receptor and 2380 nM at human orexin-2 receptor.

As to `Cc1ccc(-c2sccc2C(=O)N2CC[C@H](C)[C@H]2c2nc3c(Cl)cccc3[nH]2)cc1C` [Ex. 4.127], the IC50 at human orexin-1 receptor came to 1 nM; on human orexin-2 receptor, 19 nM.

Turning to `Cc1ccc(-c2sc(N(C)C)nc2C(=O)N2CC[C@H](C)[C@H]2c2nc3c(Cl)cccc3[nH]2)cc1C` [Ex. 4.128], the IC50 on human orexin-1 receptor was found to be 1 nM; on human orexin-2 receptor it was 387 nM.

For `COc1ccccc1-c1sc(C)nc1C(=O)N1CC[C@H](C)[C@H]1c1nc2c(Cl)cccc2[nH]1` [Ex. 4.129], the IC50 at human orexin-1 receptor was 35 nM; at human orexin-2 receptor, 2750 nM.

`Cc1ccc(C(=O)N2CC[C@H](C)[C@H]2c2nc3cc(Cl)c(C)cc3[nH]2)c(-c2ncccn2)c1` [Ex. 4.130]: the IC50 on human orexin-1 receptor turned out to be 11 nM; on human orexin-2 receptor, 128 nM.

Regarding `Cc1cc2[nH]c([C@@H]3[C@@H](C)CCN3C(=O)c3cc(F)ccc3-c3ncccn3)nc2cc1Cl` [Ex. 4.131], the IC50 is 23 nM on human orexin-1 receptor and 501 nM at human orexin-2 receptor.

For `Cc1cc2[nH]c([C@@H]3[C@@H](C)CCN3C(=O)c3c(-c4ncccn4)ccc(C)c3F)nc2cc1Cl` [Ex. 4.132], the IC50 turned out to be 87 nM at human orexin-1 receptor and 1320 nM at human orexin-2 receptor.

`Cc1cc2[nH]c([C@@H]3[C@@H](C)CCN3C(=O)c3c(F)cccc3-c3ncccn3)nc2cc1Cl` [Ex. 4.133]: the values for the IC50 at human orexin-1 receptor and on human orexin-2 receptor were 25 nM and 359 nM, respectively.

As for `COc1cccc(C#Cc2ccccc2C(=O)N2CC[C@H](C)[C@H]2c2nc3c(C)c(Cl)ccc3[nH]2)c1` [Ex. 4.134], the concentration for half-maximal inhibition (IC50) on human orexin-1 receptor worked out at 1 nM; at human orexin-2 receptor, 86 nM.

For `COc1cccc(C#Cc2ccccc2C(=O)N2CC[C@H](C)[C@H]2c2nc3cc(Cl)c(C)cc3[nH]2)c1` [Ex. 4.135], the IC50 came out at 4 nM on human orexin-1 receptor and 203 nM at human orexin-2 receptor.

For the molecule `Cc1nc(C(=O)N2CC[C@H](C)[C@H]2c2nc3cc(C(F)(F)F)ccc3[nH]2)c(-c2ccc(F)cc2)s1` [Ex. 4.136], the IC50 at human orexin-1 receptor worked out at 14 nM; on human orexin-2 receptor, 4360 nM.

For the molecule `COc1cccc(-c2sc(C)nc2C(=O)N2CC[C@H](C)[C@H]2c2nc3cc(C(F)(F)F)ccc3[nH]2)c1` [Ex. 4.137], the IC50 on human orexin-1 receptor came to 5 nM; on human orexin-2 receptor, 3090 nM.
